{
  "source": "patent US11903912B2",
  "about": "“Composition for preventing and treating breast cancer including selenopsammaplin A as active ingredients” (Seoul National University R & DB Foundation, priority 2019, dated 2024)",
  "key": {"[1]": {"tested_on": "MDA-MB231 human breast cancer cells", "assay": "SRB cytotoxicity test, MDA-MB231", "type": "cell-based", "conditions": "SRB assay, cultured 3 days", "description": "(§1) A cytotoxicity test was performed using synthesized selenopsammaplin A and derivatives thereof (Lee S K et al […] Chem Biol Interact 115:215-28).\n(§2) The cytotoxicity test was performed on a total of five representative cancer cell lines. The cytotoxicity of each compound was measured using an SRB assay method (human lung cancer cells, A549; human colon cancer cells, HCT116; human breast cancer cells, MDA-MB231; human liver cancer cells, SK-HEP-1; human gastric cancer cells, SNU638).\n(§3) Each cell line was sub-cultured once or twice using Roswell Park Memorial Institute (RPMI) medium 1640 (RPMI 1640) or Dulbecco's Modified Eagle's Medium (DMEM) containing 10% fetal bovine serum (FBS) inactivated by heat, 100 units/mL of penicillin, 100 μg/mL of streptomycin, and 250 ng/mL of amphotericin B at 37° C. for 1 week under a 5% CO2 condition. All cells were […] in liquid nitrogen, and then passaged three or more times to be used in the experiment. The effects of compounds on cell growth were measured using a sulforhodamine B (SRB) method (Lee et al (1998) Chemico-Biol Interact 115:215-228).\n(§4) Specifically, each human cancer cell line used in the present invention was sub-cultured in an RPMI medium containing 10% FBS, 1% PSF, and the like, and 10 μl of a sample dissolved in 10% DMSO and 190 μl (4-5×10^4 cells/ml) of the cell suspension were added to each well of a 96-well plate and cultured for 3 days. 190 μl of the cell suspension was added to at least 16 wells and cultured for 30 minutes, and used as a zero-day control. The cultured cells were fixed with 10% trichloroacetic acid (TCA) and then stained with an SRB solution, and the staining solution was dissolved with 10 mM Tris-base, and then absorbance at 515 nm was measured. Using the case of culturing in 10% DMSO as a control, cell viability according to each test material treatment was measured using Equation 1 below. Etoposide was used as a positive control. % Viability=(OD(sample)−OD(0-day))/(OD(10% DMSO)−OD(0-day))×100 [Equation 1]\n(§5) Assuming that a control not-treated with the sample was set at 100%, the values of sample-treated groups were expressed as percentage with respect to the control, and each test material treatment results were obtained as the mean±SEM of two or three tests. The IC50 value is the concentration of the test material for a 50% survival rate."}, "[2]": {"tested_on": "SK-HEP-1 human liver cancer cells", "assay": "SRB cytotoxicity test, SK-HEP-1", "type": "cell-based", "conditions": "SRB assay, cultured 3 days", "description": "as §1, §2, §3, §4, §5"}, "[3]": {"tested_on": "SNU638 human gastric cancer cells", "assay": "SRB cytotoxicity test, SNU638", "type": "cell-based", "conditions": "SRB assay, cultured 3 days", "description": "as §1, §2, §3, §4, §5"}, "[4]": {"tested_on": "EMT markers in MDA-MB-231 cells", "assay": "Protein expression of EMT markers, western blot", "type": "cell-based, human", "conditions": "MDA-MB-231, western blot, FIGS. 7E and 7F", "description": "The triple-negative breast cancer cell line MDA-MB-231 was spread at a concentration of 2×10^6 cells/well on a DMEM medium containing 10% FBS in a 6-well plate, cultured at 37° C. for 24 hours under a 5% CO2 condition, and then washed twice with phosphate-buffered saline (PBS). Attached cells were recovered and washed twice with PBS, and then boiling 2× sample loading buffer (250 mM Tris-HCl (pH 6.8), 4% SDS, 10% glycerol, 0.006% bromophenol blue, 2% β-mercaptoethanol, 50 mM sodium fluoride, and 5 mM sodium orthovanadate) was added thereto to disrupt the cells and the cells were left at 100° C. for 10 minutes. After cooling, the cells were stored at […] and […] at 37° C. immediately before use in protein quantification and electrophoresis. 10 μg of proteins were electrophoresed at 100 V for 2 hours using a 12% SDS-polyacrylamide gel (#456-1036, Bio-Rad, Hercules, Calif.). The separated proteins were transferred to a PVDF membrane (ISEQ15150, Millipore, Bedford, Mass.) at 100 V for 1 hour, and a blocking buffer (5% non-fat dry milk in TBS containing 0.1% Tween-20 (TBST)) was injected thereinto to culture the proteins at room temperature for 1 hour. After washing three times with TBST for 5 minutes, the corresponding single antibody was diluted with 5% non-fat dry milk in TBST and allowed to react with the membrane at 4° C. for 18 hours. The membrane [ISEQ 1S150, Millipore, Bedford, Mass.] was washed three times with TBST for 10 minutes, and then horseradish peroxidase (HRP)-conjugated secondary antibodies were diluted with 2.5% non-fat dry milk in TBST at a ratio of 1:2,000 and allowed to react with the membrane at room temperature for 2 hours. After washing three times with TBST for 10 minutes, the reaction product was treated with a chemiluminescent reagent (LabFrontier, Suwon, Korea) to confirm the protein expression levels of E-cadherin, N-cadherin, vimentin, and beta-actin (Fuji Film Corp., Japan) using LAS-4000 (Fuji Film Corp., Japan), and the results thereof are illustrated in FIG. 7E. The proteins were quantified using ImageJ software, which are illustrated in FIG. 7F."}},
  "note": "pIC50: −log10 of the molar value.",
  "data": [
    {"smiles": "O=C(NCC[Se][Se]CCNC(=O)/C(Cc1ccccc1)=N/O)/C(Cc1ccccc1)=N/O", "note": "[Compound 2, (2E,2′E)-N,N′-(diselenediylbis(ethane-2,1-diyl))bis(2-(hydroxyimino)-3-phenylpropanamide)]", "values": [
      {"measurement": "pIC50", "setting": "[1]", "value": 7.22},
      {"measurement": "pIC50", "setting": "[2]", "value": 6.92},
      {"measurement": "pIC50", "setting": "[3]", "value": 7.30},
      {"measurement": "protein expression of E-cadherin", "setting": "[4]", "value": "increased"},
      {"measurement": "protein expression of N-cadherin", "setting": "[4]", "value": "suppressed"},
      {"measurement": "protein expression of ZEB1", "setting": "[4]", "value": "suppressed"},
      {"measurement": "protein expression of vimentin", "setting": "[4]", "value": "suppressed"}
    ]}
  ]
}
